Measured values reported in patent US6906078B2, “Method of using (H+/K+) ATPase inhibitors as antiviral agents” (Pharmacia Corporation, priority 1994, dated 2005).
Read-outs that look alike come from different tables or passages of the source.

Experiments:
gastric acid secretion = test: Inhibition of gastric acid secretion in gastric fistula beagle dogs (histamine-stimulated); format: in vivo; conditions: for inhibition in vivo at 3 mg/kg: Canis lupus familiaris, 4 h, read-out: Gastric-Fistula Beagle % Inhibition (3 mg/kg dose)
Source text: Adult female beagle dogs weighing 6 to 11 kilograms obtained from Laboratory Research Enterprises (Kalamazoo, Mich.) or from Hazelton Research Animals (Cumberland, Va.) were surgically implanted with a simple Thomas-type gastric cannula. After recovery from surgery, the dogs were trained to stand quietly, fully conscious, in Pavlov-type dog restraining slings and were acclimated to intravenous infusion of histamine dihydrochloride. During the course of these studies, no dog was used more than once a week. All dogs were deprived of food, but not water, for 18 hours prior to each assay. Each dog was initially infused with 0.15 M sodium chloride solution at a constant rate of […]. The volume of gastric secretions, collected in plastic bottles affixed to the cannula, were measured to the nearest 0.1 ml at 30 minute intervals. One of the following protocols was followed, depending on the route chosen for administration of test compound.
Intravenous dosing: Following a 30-minute basal secretion period, test compounds were administered intravenously (i.v.). At the end of an additional 30 minute period, the saline infusion was replaced with histamine dihydrochloride in saline administered at a rate 15 mcg per kilogram of body weight per hour. Histamine stimulation was maintained for a maximum of four hours during which time gastric secretions were collected every 30 minutes. The pH and titratable acidity were determined for samples from each collection period.
Intragastric dosing: Following a 30-minute basal secretion period, he collection bottles were removed, dosing plugs here inserted, and test compounds were administered intragastrically (i.g.) At the end of a 30-minute drug absorption period, the stomachs were emptied, the collection bottles were reattached, and collections were resumed at 30-minute intervals. Simultaneously, the saline infusion was replaced with a continuous intravenous infusion of histamine dihydrochloride in saline administered for four hours at a rate 15 mcg per kilogram of body weight per hour.
Intraduodenal dosing: Dogs were also equipped with duodenal cannulas for intraduodenal (i.d.) administration of test compounds. Dosing was otherwise performed as described for intragastric dosing.
Data from each protocol were analyzed for three gastric sample variables: volume of gastric juice, acid concentration, and total acid output. Percent inhibition for each four-hour experimental period was determined for each parameter by comparison with 3 to 4 controls in which […]. Estimates of ED50's were determined from dose response curves.

(H+/K+)-ATPase = biological target: T1, (H+/K+)-ATPase (Canis lupus familiaris, UniProt P50996); test: Inhibition of (H+/K+)-ATPase from canine gastric mucosa (inorganic phosphate release); format: biochemical; conditions: canine gastric mucosa microsomes, pH 6.0, 30 min preincubation at 37° C.; read-out: (H+/K+)-ATPase IC50
T1 construct: The microsomes retained at the 15%-30% sucrose interface, after centrifugation at 250,000×g for sixty minutes, were used as the source of (H^+/K^+)-ATPase; from tissue; host or cells: gastric glandular mucosa of mongrel dogs (microsomal fraction, lyophilized)
Method: Mongrel dogs weighing 15 to 25 kilograms were fasted for twenty-four hours, with water provided ad libitum. The animals were anesthetized with pentobarbital and the stomachs were removed. Subsequent tissue manipulations and subcellular fractionations were performed at 0° C. to 4° C. After the stomachs were cut open and rinsed with tap water, the antral and cardiac regions were removed and the remaining tissue was rinsed three times in saline. The glandular mucosa was removed mechanically, chopped finely in a medium containing 10 mM Tris hydrochloride (pH 7.4) and 250 mM sucrose, and homogenized. The homogenate was centrifuged at 20,000×g for twenty minutes and the pellet discarded. The supernatant was then centrifuged at 150,000×g for ninety minutes and the supernatant discarded. The pellet was resuspended in the Tris-HCl/sucrose medium by homogenization. Part (2 ml) of the resultant microsomal suspension was layered onto a step gradient consisting of 9 ml of 15% sucrose above 12 ml of 30% sucrose, each sucrose solution being buffered with 10 mM Tris hydrochloride (pH 7.4) containing 0.01% sodium azide. The microsomes retained at the 15%-30% sucrose interface, after centrifugation at 250,000×g for sixty minutes, were used as the source of (H^+/K^+)-ATPase. Microsomal preparations were lyophilized, a process that assured potassium ion permiability, and stored at −10° C. until used.
(H^+/K^+)-ATPase activity for each test compound was determined, in duplicate, by measuring the release of inorganic phosphate, which was assayed according to the method of J. ChandraRajan and L. Klein, Anal. Biochem., 72 , 407 (1976). The (H^+/K^+)-ATPase assay medium consisted of 20 mm mes-Tris (pH 6.0), 5 mM magnesium chloride, 25 mM sucrose, and 4 mM Tris-ATP with or without 20 mM potassium chloride in a total volume of 2 ml. Microsomal suspensions (20 to 60 mcl, containing about 25 mcg protein) were added to the assay medium, without Tris-ATP, and then preincubated with a test compound for thirty minutes at 37° C. The assay was initiated by adding Tris-ATP and the mixture was incubated another thirty minutes at 37° C. A 200-mcl aliquot of the assay mixture was then added to 1.4 ml of a solution consisting of 0.1 M sodium acetate (pH 4.0) and 10% sodium dodecylsulfate, followed by the addition of 200 mcl each of 1% ammonium molybdate and 1% ascorbic acid. At least fifteen minutes later, the optical absorbance at 870 nm (which was proportional to inorganic phosphate concentration up to 100 nmoles per tube, as determined by a standard curve) was obtained. Enzyme activity was linear with incubation time.
(H^+/K^+)-ATPase activity is represented by the difference between the measured activities in the presence of potassium-ion (K^+-stimulated) and in the absence of potassium ion (basal).

[1] = iv, 3 mg/kg i.v., histamine-stimulated, four-hour period
[2] = intraduodenal, 3 mg/kg i.d., histamine-stimulated, four-hour period

T1 sequence (P50996 whole entry): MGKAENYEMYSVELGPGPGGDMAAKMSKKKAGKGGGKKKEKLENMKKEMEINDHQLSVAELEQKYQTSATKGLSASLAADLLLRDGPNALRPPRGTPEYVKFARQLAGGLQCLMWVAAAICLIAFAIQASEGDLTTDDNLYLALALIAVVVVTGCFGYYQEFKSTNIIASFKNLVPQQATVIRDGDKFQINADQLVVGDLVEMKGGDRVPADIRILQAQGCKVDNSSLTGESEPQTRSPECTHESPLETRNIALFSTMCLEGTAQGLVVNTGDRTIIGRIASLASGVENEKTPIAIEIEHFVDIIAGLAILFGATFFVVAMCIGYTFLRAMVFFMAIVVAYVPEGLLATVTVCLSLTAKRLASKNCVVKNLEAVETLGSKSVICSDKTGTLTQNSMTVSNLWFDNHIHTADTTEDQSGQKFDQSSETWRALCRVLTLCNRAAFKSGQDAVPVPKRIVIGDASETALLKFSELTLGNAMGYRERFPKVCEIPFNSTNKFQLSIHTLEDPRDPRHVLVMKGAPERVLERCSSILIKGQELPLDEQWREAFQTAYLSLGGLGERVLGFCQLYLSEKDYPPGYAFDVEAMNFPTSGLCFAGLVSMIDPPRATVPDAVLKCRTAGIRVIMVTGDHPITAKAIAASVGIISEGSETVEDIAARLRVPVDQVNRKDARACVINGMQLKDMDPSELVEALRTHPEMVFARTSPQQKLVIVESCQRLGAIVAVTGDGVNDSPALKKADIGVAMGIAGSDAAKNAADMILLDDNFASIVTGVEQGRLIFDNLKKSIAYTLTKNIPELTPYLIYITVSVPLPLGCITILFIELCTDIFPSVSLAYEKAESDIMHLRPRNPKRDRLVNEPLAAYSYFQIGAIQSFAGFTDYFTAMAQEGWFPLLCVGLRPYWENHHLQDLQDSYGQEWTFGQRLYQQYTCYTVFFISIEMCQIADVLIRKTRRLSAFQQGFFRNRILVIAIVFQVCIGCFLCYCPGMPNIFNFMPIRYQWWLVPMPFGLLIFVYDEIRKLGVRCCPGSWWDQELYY
T1 sequence (P33704 whole entry partner): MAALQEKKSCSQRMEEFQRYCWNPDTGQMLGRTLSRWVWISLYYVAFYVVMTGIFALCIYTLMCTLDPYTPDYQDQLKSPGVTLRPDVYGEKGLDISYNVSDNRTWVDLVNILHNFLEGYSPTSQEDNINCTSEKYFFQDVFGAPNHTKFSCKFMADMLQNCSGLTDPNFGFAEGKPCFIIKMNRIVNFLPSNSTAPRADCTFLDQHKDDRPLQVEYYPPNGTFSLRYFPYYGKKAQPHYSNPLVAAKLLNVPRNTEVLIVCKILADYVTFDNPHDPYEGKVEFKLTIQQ

Compound | IC50 ((H+/K+)-ATPase) [µM] | inhibition in vivo at 3 mg/kg (gastric acid secretion; [1]) [%] | melting point [°C] | inhibition in vivo at 3 mg/kg (gastric acid secretion; [2]) [%] | further results
COC(=O)c1cccc(C[S+]([O-])c2nc3ccccc3[nH]2)c1N (stereo not shown) [Example 69, Methyl 2-amino-3-[(1H-benzimidazol-2-ylsulfinyl)methyl]benzoate hydrate] | 153 |  |  |  | inhibition in vivo at 3 mg/kg (gastric acid secretion; intraduodenal): 28%
CC(=O)Nc1ccccc1C[S+]([O-])c1nc2ccccc2[nH]1 (stereo not shown) [Example 6, N-[2-[(1H-Benzimidazol-2-ylsulfinyl)methyl]phenyl]acetamide] | > 100 | 37 | 201 to 202.5 |  | 
Nc1cc(Cl)ccc1C[S+]([O-])c1nc2ccccc2[nH]1 (stereo not shown) [Example 18, 2-[(1H-Benzimidazol-2-ylsulfinyl)methyl]-5-chlorobenzenamine] | 24 | 13 | 173.5 to 175.5 |  | 
Nc1ccc(F)cc1C[S+]([O-])c1nc2ccccc2[nH]1 (stereo not shown) [Example 76, 2-[(1H-Benzimidazol-2-ylsulfinyl)methyl]-4-fluorobenzenamine] | 24.9 |  | 184 to 185 |  | 
Nc1ccc(C(F)(F)F)cc1C[S+]([O-])c1nc2ccccc2[nH]1 (stereo not shown) [Example 49, 2-[(1H-Benzimidazol-2-ylsulfinyl)methyl]-4-(trifluoromethyl)benzenamine] | > 100 |  | 185 to 187 | 16 | 
Nc1cccc(C[S+]([O-])c2nc3ccccc3[nH]2)n1 (stereo not shown) [Example 85, 6-[(1H-Benzimidazol-2-ylsulfinyl)methyl]-2-pyridinamine] | 2.5 | 59 |  |  | 
Nc1ccccc1C[S+]([O-])c1nc2ccccc2[nH]1 (stereo not shown) [Example 3, 2-[(1H-Benzimidazol-2-ylsulfinyl)methyl]benzenamine] | 4.3 | 59 | 164 to 165 | 53 | 
CCNc1cccc(C[S+]([O-])c2nc3ccccc3[nH]2)n1 (stereo not shown) [Example 109, 6-[(1H-Benzimidazol-2-ylsulfinyl)methyl]-N-ethyl-2-pyridinamine] | 20 |  |  | 58 | 
CCc1ccc(N)c(C[S+]([O-])c2nc3ccccc3[nH]2)c1 (stereo not shown) [Example 37, 2-[(1H-Benzimidazol-2-ylsulfinyl)methyl]-4-ethylbenzenamine] | 2 |  | 155 to 156 | 62 | 
Nc1ncccc1C[S+]([O-])c1nc2ccccc2[nH]1 (stereo not shown) [Example 81, 3-[(1H-Benzimidazol-2-ylsulfinyl)methyl]-2-pyridinamine hydrate] | ≥ 100 |  |  |  | inhibition in vivo at 3 mg/kg (gastric acid secretion; iv): 41%
Cc1cccc(N)c1C[S+]([O-])c1nc2ccccc2[nH]1 (stereo not shown) [Example 24, 2-[(1H-Benzimidazol-2-ylsulfinyl)methyl]-3-methylbenzenamine ¼ hydrate] | 0.66 | 73 |  |  | 
CCOc1ccc2[nH]c([S+]([O-])Cc3cc(C)ccc3N)nc2c1 (stereo not shown) [Example 61, 2-[[(5-Ethoxy-1H-benzimidazol-2-yl)sulfinyl]-methyl]-4-methylbenzenamine] | 5.3 |  | 144 to 145 |  | 
CCc1cccc(C[S+]([O-])c2nc3ccccc3[nH]2)c1N (stereo not shown) [Example 38, 2-[(1H-Benzimidazol-2-ylsulfinyl)methyl]-6-ethylbenzenamine] | 3.9 |  |  | 21 | 
COc1ccc2[nH]c([S+]([O-])Cc3cccc(N)n3)nc2c1 (stereo not shown) [Example 91, 6-[[(5-Methoxy-1H-benzimidazol-2-yl)sulfinyl]-methyl]-2-pyridinamine] | 4.5 | 46 |  |  | 
Nc1ccc(Cl)cc1C[S+]([O-])c1nc2ccccc2[nH]1 (stereo not shown) [Example 16, 2-[(1H-Benzimidazol-2-ylsulfinyl)methyl]-4-chlorobenzenamine] | 130 | 24 | 210 to 211 |  | 
CCCCc1ccc(N)c(C[S+]([O-])c2nc3ccccc3[nH]2)c1 (stereo not shown) [Example 51, 2-[(1H-Benzimidazol-2-ylsulfinyl)methyl]-4-butylbenzenamine] | 2.6 |  | 146 to 148 | 19 | 
COc1ccc2[nH]c([S+]([O-])Cc3cccc(C)c3N)nc2c1 (stereo not shown) [Example 36, 2-[[(5-Methoxy-1H-benzimidazol-2-yl)sulfinyl]methyl]-6-methylbenzenamine] | 5.4 | 96 | 142 to 144 | 72 | 
Cc1cccc(C[S+]([O-])c2nc3ccccc3[nH]2)c1N (stereo not shown) [Example 28, 2-[(1H-Benzimidazol-2-ylsulfinyl)methyl]-6-methylbenzenamine] | 3.2 | 93 | 156 to 157 | 44 | 
Cc1ccc(N)c(C[S+]([O-])c2nc3ccccc3[nH]2)c1 (stereo not shown) [Example 26, 2-[(1H-Benzimidazol-2-ylsulfinyl)methyl]-4-methylbenzenamine] | 2.1 | 67 |  |  | 
CCOc1ccc2[nH]c(SCc3ccccc3N)nc2c1.O (hydrate or solvate) |  |  | 87 to 89 |  | 
COc1ccc2[nH]c(SCc3cccc(C)c3N)nc2c1 [Example 35, 2-[[(5-methoxy-1H-benzimidazol-2-yl)thio]methyl]-6-methylbenzenamine] |  |  | 132 to 134 |  | 
Cc1cccc2[nH]c([S+]([O-])Cc3ccccc3N)nc12.Cc1cccc2[nH]c([S+]([O-])Cc3ccccc3N)nc12.O (stereo not shown) [Example 8, 2-[[(4-Methyl-1H-benzimidazol-2-yl)sulfinyl]methyl]benzenamine hemihydrate] | 7.4 |  |  |  | Gastric-Fistula Beagle % Inhibition (3 mg/kg dose) (gastric acid secretion; 3 mg/kg i.v., histamine-stimulated, four-hour period): 60 i.v. %
Cc1ccc(C)c(C[S+]([O-])c2nc3ccccc3[nH]2)c1N.O (stereo not shown) (hydrate or solvate) [Example 55, 2-[(1H-Benzimidazol-2-ylsulfinyl)methyl]-3,6-dimethylbenzenamine monohydrate] |  |  | 144 to 145 |  | 
